PubChem BioAssay (NCI)
Values joined by “and” are separate entries in the source; they are usually repeats but may differ in a detail not shown here. Equal entries are not always repeated.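 Briefly, cells in 96-well plates were exposed to five compound concentrations for 48 h, and endpoints were estimated by linear interpolation. GI50: concentration for 50% inhibition of growth. TGI is the concentration that stops growth completely.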

Tests used:
Experiment in all cases: NCI tumour cell line growth inhibition, 48 h
[1] = test system: LXFL 529 NSCLC
[2] = test system: DMS 273 small cell lung
[3] = test system: XF 498 CNS
[4] = test system: SNB-78 CNS
[5] = test system: DLD-1 colon
[6] = test system: KM20L2 colon
[7] = test system: DMS 114 small cell lung
[8] = test system: HOP-18 NSCLC

Row | Structure (SMILES) | TGI [1] | TGI [2] | TGI [3] | TGI [4] | TGI [5] | TGI [6] | TGI [7] | TGI [8] | GI50 [1] | GI50 [8] | GI50 [2] | GI50 [3]
1 | O=C(CSC(=S)N1CCOCC1)Nc1nc2c(s1)CCCC2 | > 100 µM | > 100 µM | > 100 µM | > 100 µM | > 100 µM | > 100 µM | > 100 µM | – | – | – | – | –
2 | CC(C)=CCSC1CC2C(CC1(C)O)C2(C)C (stereo not given) | 31.7 µM and 27.1 µM | 29.9 µM and 21.5 µM | 18 µM and 16.6 µM | 41.2 µM and 26.3 µM | 33.4 µM and 27.4 µM | 30.8 µM and 34.9 µM | 30.7 µM and 21.7 µM | – | – | – | – | –
3 | CC(=O)NC1=C(C)C(=O)c2c(nc3n2CCC3O)C1=N (stereo not given) | – | 33.2 µM | 9.04 µM | 8.56 µM | 25.1 µM | 36.9 µM | 13.4 µM | 31.8 µM | – | – | – | –
4 | CCC(CC)n1c(C)nc2c1C(=O)c1ccccc1C2=O | > 100 µM | > 100 µM | – | > 100 µM | > 100 µM | > 100 µM | – | – | – | – | – | –
5 | NC(=O)N1N=C2c3ccccc3SC[C@H]2[C@@H]1c1ccccc1 | 94.2 µM | – | 56.8 µM | 93.3 µM | 91 µM | 39.8 µM | 79.9 µM | – | – | – | – | –
6 | COc1ccc(C(C#N)NNc2nc(C)cc(=O)[nH]2)cc1OC (stereo not given) | > 100 µM | > 100 µM | – | > 100 µM | > 100 µM | > 100 µM | > 100 µM | > 100 µM | – | – | – | –
7 | COC(=O)C1C2C=CC(C2)N1[C@@H](C)c1ccccc1 (stereo not given in full) | > 100 µM | > 100 µM | – | > 100 µM | > 100 µM | > 100 µM | – | > 100 µM | – | – | – | –
8 | CCOc1ccc(NCc2cc(OC)c(OC)c(OC)c2)cc1 | > 100 µM | > 100 µM | > 95.6 µM and 62 µM | > 100 µM | > 100 µM | 1.79 µM and 3.09 µM | 3.17 µM and 20 µM | > 100 µM | 0.839 µM and 2.67 µM | 2.46 µM and 10.2 µM | 0.296 µM and 0.821 µM | 9.37 µM and 3 µM
9 | CN=S(=O)(c1ccccc1)c1ccccc1 | – | > 100 µM | > 100 µM | > 100 µM | > 100 µM | > 100 µM | > 100 µM | > 100 µM | – | – | – | –
10 | CC(C)C1CC(O)O[C@@H]([C@@H](C)[C@H]2CC(=O)[C@@H]3[C@@H]4[C@@H](O)[C@H](O)[C@H]5[C@@H](O)[C@H](O)CC[C@]5(C)[C@H]4CC[C@]23C)C1 (stereo not given in full) | > 100 µM | > 100 µM | 56 µM | > 100 µM | > 100 µM | > 100 µM | – | – | – | – | – | –
